assay: Antagonist activity at Adenosine receptor subtype 2B in human RBC assessed as change in erythrocyte morphology incubated for 3 hrs with occasional gentle stirring for every 30 min measured for every 12 hrs by microscopic analysis

SMILES	EC50 [nM]	Ki [nM]
CCCn1c(=O)n(C)c(=O)c2[nH]c(-c3ccc(O[C@@H](C)C(=O)N4CCN(c5nc6ccc(Cl)cc6s5)CC4)cc3)cc21	–	1
O=C(CN1CCOC(Cn2cncn2)C1)Nc1cccnc1 (stereo not drawn)	17	–
Cc1ccc(N2CCN(C(=O)[C@H](C)Oc3ccc(-c4cc5c([nH]4)c(=O)n(C)c(=O)n5C)cc3)CC2)cc1	–	1.8
C[C@H](Oc1ccc(-c2cc3c([nH]2)c(=O)n(C)c(=O)n3C)cc1)C(=O)Nc1ccc(Br)cc1	–	1.3

Next, values leading:

EC50 [nM]	Ki [nM]	SMILES
23	–	CCCc1cc(O)nc(SC(C)C(=O)Nc2cc(C)no2)n1 (stereo not drawn)
35	–	Cc1cc(NC(=O)CNc2ccc3c(c2)OC(F)(F)O3)on1
35	–	CC(C)c1noc(OCC(=O)NCc2ccc3c(c2)OCO3)n1
47	–	CC(OC(=O)c1nccnc1N)C(=O)NCc1ccc2c(c1)OCO2 (stereo not drawn)

Source: BindingDB's records for doi:10.1016/j.ejmech.2017.05.035 (Universidade Estadual De Feira De Santana, 2017)
